Results as given in patent US20030104079A1, “Skin tissue regeneration promoters comprising ginsenoside Rb1” (Japan Science and Technology Corporation, Japan, priority 2000, published 2003).
“Also recorded” adds a separate entry of the source.

What was measured:
open wound of rat skin = assay: Open wound healing by external or topical application to skin (propet ointment); format: in vivo, rats
Source text: For that purpose, for example, by using Wistar male rats (body weight about 300 g), the punch biopsies with diameter 6 mm were made in the dorsal region of animals after shaving under inhalation anesthesia to prepare 3 regions of open wound. Among them, 0.1 g of ophthalmic white Vaseline (Propet) containing 0.01% by weight or 0.001% by weight of ginsenoside Rb1 was spread once for every day in two regions, and in the remaining open wound, the equal amount of ophthalmic white Vaseline (propet) was spread. Nine days after preparing open wound, the skin including wound regions was photographed. Further, we have examined the effects of external or topical cutaneous spread of 0.0001% by weight, 0.00001% by weight or 0.000001% by weight of ginsenoside Rb1 by the same procedure. Experimental animals were euthanized by anesthetia immediately before photographing, then wound regions were dissected out after photographing or after dissecting out wound regions, photographing was performed. Thereafter, the wound region tissues were stored in the fixative. FIG. 5 and FIG. 6 are photographs in place of drawings.
The punch biopsy with diameter 6 mm was performed in the dorsal 6 regions of each animal under inhalation anesthesia to prepare open wound. Thereafter, 0.1 g of propet (ophthalmic white vaseline) containing ginsenoside Rb1 at the concentrations of 0.0001% by weight (10^−4% by weight), 0.00001% by weight (10^−5% by weight), 0.000001% by weight (10^−6% by weight), 0.0000001% by weight (10^−7% by weight) and 0.00000001% by weight (10^−8% by weight), respectively, was applied externally, once a day, for 9 days on each open wound. The equal amount of propet alone was applied externally or topically in the control animals. Then, immediately after euthanasia by anesthetization, the skin containing the open wound was dissected out and photographed. The collected skin tissue was preserved in a fixative. FIG. 12 is a photograph in place of drawing.
In each case, there are three wounds on the left side and three wounds on the right side, totally 6 marks of open wounds.
In the experimental cases hereinbefore explained, an area of open wound (flair region) applied externally only with propet is set as a denominator and an area of open wound administered externally with ginsenoside Rb1 at concentrations from 10^−4% by weight to 10^−8% by weight is set as a numerator, and ratio thereof is calculated. In FIG. 13, n=3 and single asterisk (*) indicates significant difference, P<0.05, and two asterisks (**) indicate significant difference, P<0.01. Statistical test was performed according to Scheffe's post hoc test.
Details of dihydroginsenoside Rb1 is described in the specification of PCT/JP00/04102 (Brain cell or nerve cell protecting agents comprising ginseng). The punch biopsy with diameter 6 mm was performed at 5 places in the dorsal region of rats (n=4) under inhalation anesthesia to prepare open wound. Thereafter, 0.1 g of propet containing dihydroginsenoside Rb1 at concentrations of 0.0001% by weight (10^−4% by weight), 0.00001% by weight (10^−5% by weight), 0.000001% by weight (10^−6% by weight) and 0.0000001% by weight (10^−7% by weight), respectively, was applied topically or externally, once a day, for 9 days onto each open wound. The equal amount of propet alone was applied externally or topically in the control animals. Then, immediately after euthanasia by anesthetization, the skin containing the open wound was dissected out and photographed. The collected skin tissue was preserved in a fixative. FIG. 14 is a photograph in place of drawing. In FIG. 14, four cases are shown, and from the upper column, the first case, the second case, the third case and the fourth case are shown.

[1] = test system: permanent occlusion of the cortical branch of the middle cerebral artery; details: infused into the cerebroventricles of cerebral infarcted rats; cited from earlier work
[2] = test system: skin epidermal keratinocytes or hornified cells; details: extracellular fluid concentration 100 μg/ml; cited from earlier work

CC(C)=CCC[C@](C)(O[C@@H]1O[C@H](CO[C@@H]2O[C@H](CO)[C@@H](O)[C@H](O)[C@H]2O)[C@@H](O)[C@H](O)[C@H]1O)[C@H]1CC[C@]2(C)[C@@H]1[C@H](O)C[C@@H]1[C@@]3(C)CC[C@H](O[C@@H]4O[C@H](CO)[C@@H](O)[C@H](O)[C@H]4O[C@@H]4O[C@H](CO)[C@@H](O)[C@H](O)[C@H]4O)C(C)(C)[C@@H]3CC[C@]12C [ginsenoside Rb1]
open wound reduction (FIG. 13) (open wound of rat skin; 0.0000001% by weight (10^−7% by weight) or less, i.e. 1 ng/g or less): reduced significantly the open wound
ratio of open wound area to propet alone (FIG. 13) (open wound of rat skin; 10^−4% to 10^−8% by weight, n=3, Scheffe's post hoc test): wound healing was significantly promoted
area of the open wound relative to control (open wound of rat skin; concentrations around 10^−8% by weight): about ¼
growing hair in regions of wound healing (FIG. 12) (open wound of rat skin; external administration of the low concentrations of ginsenoside Rb1): growing hair was obviously observed
hair restoration or hair growth from regenerated open wound (open wound of rat skin; extracutaneous administration of 0.000001% by weight): obvious hair restoration or hair growth
area of open wound region relative to control (open wound of rat skin; ginsenoside Rb1 at 0.0001%, 0.00001%, 0.000001%, 0.0000001% or 0.00000001% by weight): ½-¼
volume of the open wound relative to control (open wound of rat skin; low concentrations, worked out from the area reduction): about ⅛
effectiveness on open wound (FIG. 6) (open wound of rat skin; propet containing 0.00001% or 0.000001% by weight, compared with 0.0001% by weight): superior effectiveness as compared with propet containing 0.0001% by weight
open wound area vs propet alone (FIG. 5) (open wound of rat skin; propet containing 0.001% by weight, 0.1 g once every day, day 9): slightly reduced
open wound vs propet alone control (FIG. 5) (open wound of rat skin; propet containing 0.01% by weight, 0.1 g once every day, day 9): trivial; also recorded: no difference
wound healing vs propet alone (FIG. 12) (open wound of rat skin; propet containing 10^−6% to 10^−8% by weight (10 ng/g to 100 pg/g), once a day for 9 days): wound healing was obviously promoted
cerebral infarction and place navigation disability [1]: cerebral infarction-reducting effect and place navigation disability-improving effect were observed
division and proliferation of skin epidermal keratinocytes or hornified cells [2]: can promote division and proliferation of skin epidermal keratinocytes or hornified cells
